# Measurements published in patent publication US5985893A, “Physically stable solid form of a fluoroquinolone” (Pharmacia & Upjohn Company, priority 1996, dated 1999).
# Where “and” joins values, the source holds several entries; their conditions need not be identical. Equal values may be shown once. Entries after “also recorded” stand apart in the source; their conditions may differ.
# What was measured:
# Assay type in all cases: physicochemical
# [1] = Stability of the solid forms to phase transformation (overall finding); details: variety of conditions
# [2] = DSC and thermomicroscopy of solid-state transformations
# Description: A Nikon POH-2 polarized light compound microscope with 10× objective is employed to view specimens mounted dry between a glass microscope slide and a no. 11/2 Cover slip. The samples are heated from ambient through 250° C. in a Mettler FP-80 microfurnace controlled by a Mettler FP-8 microprocessor. The heating rates may vary from 5-20° C./minute. The hot-stage experiments may be videotaped (Sony T120-HG and PM VHS tape) with a Hitachi VK-C350 Color Video Camera and a Panasonic AG-6200 Video Cassette Recorder.
# Differential scanning calorimetry (DSC) is used to monitor enthalpy changes as a function of temperature during a linear temperature increase. A DuPont 910 DSC interfaced to a TA Instruments TA2100 computer may be used. The scan rate is 5° C./minute, and the instrument is operated with a 50-80 cc/min dry nitrogen purge. Samples are encapsulated in hermetically sealed aluminum sample pans with a pressure rating of about 2 bar. In some experiments, the lids of the pans are perforated to permit the passage of moisture and other volatile components.
# Because calorimetric samples are occasionally affected by residual moisture, samples are sometimes studied with different initial water activities. Samples are weighed into tared DSC pans, and the open pans are permitted to equilibrate for several days in chambers of constant relative humidity at 25±1° C. These chambers are prepared from saturated salt solutions at 53% RH and 75% RH. At the end of the equilibration period, the chambers are opened, and the lids are placed over the samples to prevent re-equilibration with the ambient atmosphere. The samples are removed from the chambers, and the pans are quickly crimped closed.
# Detailed description of FIG. 8. […] The heating rate is 5° C./minute. (a.) The sample is encapsulated in a standard DSC pan. (b.) The sample is encapsulated in a hermetically sealed DSC pan. The profiles are offset along the ordinate axis for comparison.
# Detailed description of FIG. 10. […] The heating rate was 5° C./minute. (a.) The sample was equilibrated at 53% RH and encapsulated in a standard DSC pan. (b.)The sample was equilibrated at 53% RH and encapsulated in a hermetically sealed DSC pan. (c.) The sample was equilibrated at 75% RH and encapsulated in a hermetically sealed DSC pan. The profiles were offset along the ordinate axis for comparison.
# [3] = Dynamic moisture sorption gravimetry (controlled atmosphere microbalance, 25° C)
# Description: Dynamic Moisture Sorption Gravimetry
# Dynamic moisture uptake is studied on the controlled atmosphere microbalance system at 25° C. About ten mg of sample are equilibrated on the balance for about 2 hours at 2.5% RH. The relative humidity surrounding the sample is increased in increments of 3% RH up to about 92% RH, at which point the RH is decremented in 3% steps to a final RH of about 2.5%. At each relative humidity, the sample is allowed to equilibrate until the mass is stable within 0.0005 mg over a ten minute period. The dry mass is assumed to correspond to the mass of the sample after the initial equilibration period. A controlled atmosphere microbalance is a balance system described by Bergren, M.S. Int. J. Pharm. (1994) Vol. 103, pp. 103-114.
# (§1) Detailed description of FIG. 2. […] The ordinate represents the mass change relative to the lowest mass measurement. The abscissa is relative humidity. The circles represent points recorded after sequential increases in the relative humidity and the squares were recorded after decreases in the relative humidity. The horizontal line in the middle of the plot corresponds to the water content of the hypothetical monohydrate of the quinolone.
# as §1, with “6.” for “2.”
# [4] = Enthalpies of solution (solution calorimetry); details: Form III grown directly from solution
# Description: The enthalpies of solution are determined in 50 mL of 0.1 M HCl at 25.0±0.05° C. Samples (0.10-0.11 g ) are weighed in 2 ml spherical, soft glass ampules and dried overnight in an evacuated desiccator over P2 O5. The ampules are removed, capped, weighed, and flame sealed. The enthalpies of solution are measured on a Tronac model 458 isoperibol solution calorimeter. The calorimetric accuracy of this instrument is within 1% based on calibration with tris(hydroxymethyl)-aminomethane (TRIS) in 0.1 N HCl.
# [5] = Solubility of the quinolone, Forms I and III, in ethyl acetate; details: 20° C, two values given
# Description: Bulk drug samples are prepared by dissolving the material in mobile phase at a final concentration of approximately 0.25 to 0.5 mg/ml. For solubility experiments, 100 mcl aliquots of ethyl acetate solutions are withdrawn and placed directly into HPLC autosampler vials. A gentle stream of nitrogen gas is used to evaporate the solvent in the sample vials. The solids are reconstituted with 0.5 ml of HPLC mobile phase prior to analysis.
# Solubilities are measured in ethyl acetate. Five to ten milligrams of bulk drug are placed into an amber autoinjector vial, and 3.0 ml of ethyl acetate are added. The vials are capped and shaken for intervals up to 24 hours at room temperature using a Burrell model BB wrist-action shaker. Aliquots are withdrawn from the supernate after centrifugation. The final sample is taken from a quiescent solution which had not been shaken since the 24 hour timepoint.
# The solubilities of Forms I and III were determined in ethyl acetate at room temperature; the solubility data for each form was gathered simultaneously, to assure that each form's solubility was measured under identical conditions. Ethyl acetate was employed as an aprotic solvent yielding fairly low equilibrium solubilities of the quinolone; ethyl acetate has been used to evaluate the difference in free energy of polymorphic forms of an antinociceptive drug, as described by K. Raghavan et al., J. Pharm. Biomed. Anal. Vol.12 (6), pp. 777-785 (1994). Under the assumption that the solubilities in TABLE S are consistent with the dilute solution limit, we can use the following expression to calculate the difference in Gibbs free energy between Form I and Form III: [formula] where "sx " is the solubility of Form x in a sufficiently dilute solution, R is the gas constant, and T is the absolute temperature. Using the data in Table 1, we find that the Gibbs free energy of Form III is lower than that of Form I by 7.7±0.2 kJ/mole.
# [6] = Isothermal calorimetry (ITC) of Form I to Form III conversion; details: after ITC at 40° C
# Description: Isothermal calorimetry (ITC) experiments are conducted using a model 2277 microcalorimeter made by ThermoMetric (see Suurkuusk, J.:Wadso, I. Chem. Scr. (1982) Vol. 20 pp. 155-163). The Digitam® version 2.1 software from Thermometric is used to display the data and to integrate the total heat obtained from the samples. Heat flow is monitored as a function of time at 60° C. and at 40° C. Both glass and stainless steel ampules are used to hold the solid samples and the reference material (quartz sand). Samples are thermally equilibrated for a period ranging from 15 minutes (glass ampules) to 1 hour (stainless steel ampules) prior to recording thermal data. The weight of the samples ranged from about 75 to 300 mg. Samples in glass ampules are equilibrated via the isopiestic method at 53% or 75% RH in chambers containing saturated solutions of sodium chloride or calcium nitrate tetrahydrate. The ampules are capped immediately after removing the samples. Other samples are equilibrated using "microhygrostats" containing small quantities of saturated salt solutions which are sealed within the ampules. This arrangement provided for nearly constant relative humidity as the crystal conversion proceeded.
# We therefore studied the transformation of samples after equilibration at […] and 75% RH. […] HPLC analysis of the reaction product confirmed that the 60° C. ITC profiles contained negligible contributions from chemical decomposition.
# A detailed explanation of FIG. 9 follows. […] Trace (a) is recorded from a sample of Form I equilibrated to 75% relative humidity before sealing the sample container and exposing it to the 60° C. conditions in the calorimeter. Trace (b) is recorded for a sample of Form I at 60° C., but a 75% relative humidity "microhygrostat" is placed in the sample container just prior to recording the data. The conversion is delayed from that of trace (a) due to the fact that the water must be transported from the microhygrostat to the Form I crystals during the experiment. Trace (c) is recorded for a sample of Form I at 60° C., but the sample was equilibrated at 53% relative humidity prior to sealing the sample container.
# This trace results from placing a 75% relative humidity microhygrostat into the sample container just prior to recording the data. The sample is held at 40° C. in the calorimeter; the heat flow results as the Form I material converts to Form III.
Temperature of Form II to Form III transformation ([2]; melt/recrystallization),Moisture adsorbed ([3]; throughout the entire RH range),Enthalpy of Form III lower than Form I by [4],"Solubility, concentration ([5]; 1 hour, 60 min)","Solubility, concentration ([5]; 2 hours, 120 min) [µg/mL]","Solubility, concentration ([5]; 4.5 hours, 270 min) [µg/mL]","Solubility, concentration ([5]; 18 hours, 1080 min) [µg/mL]","Solubility, concentration ([5]; 24 hours, 1440 min) [µg/mL]","Solubility, concentration ([5]; 67.5 hours (not shaken after 24 hours), 4050 min) [µg/mL]",Moisture content of recovered Form III crystals [6] [%],Enthalpy of fusion ([2]; DSC),SMILES,Stability to transformation (in words) [1],"Moisture sorption behaviour (in words) ([3]; 25° C, sorption/desorption)",Stability to transformation (in words) ([1]; listed as methanolate)
166-171 °C,,,,,,,,,,,"CN[C@@H](C)[C@@H]1CCN(c2c(F)cc3c(=O)c(C(=O)O)cn(C4CC4)c3c2OC)C1 [Form II, [S-(R*,S*)]-1-cyclopropyl-6-fluoro-1,4-dihydro-8-methoxy-7-[3-[1-(methylamino)ethyl]-1-pyrrolidinyl]-4-oxo-3-quinolinecarboxylic acid]",undergo phase transformations under a variety of conditions,,
,less than 0.5%,about 8.8 kJ/mole,60 µg/mL and 90 µg/mL,110,120,140,150,140,0.61,approximately 150 J/g,"CN[C@@H](C)[C@@H]1CCN(c2c(F)cc3c(=O)c(C(=O)O)cn(C4CC4)c3c2OC)C1 [Form III, [S-(R*,S*)]-1-cyclopropyl-6-fluoro-1,4-dihydro-8-methoxy-7-[3-[1-(methylamino)ethyl]-1-pyrrolidinyl]-4-oxo-3-quinolinecarboxylic acid]",stable to transformation,"sorbs less moisture than Form I at all relative humidities; also recorded: very little hysteresis between the sorption and desorption profiles, and the sample exhibited no evidence of recrystallization and/or hydrate Formation",
,,,,,,,,,,,"CN[C@@H](C)[C@@H]1CCN(c2c(F)cc3c(=O)c(C(=O)O)cn(C4CC4)c3c2OC)C1 [Form MS, [S-(R*,S*)]-1-cyclopropyl-6-fluoro-1,4-dihydro-8-methoxy-7-[3-[1-(methylamino)ethyl]-1-pyrrolidinyl]-4-oxo-3-quinolinecarboxylic acid]",undergo phase transformations under a variety of conditions,,desolvates to yield Form I under such mild conditions that solvent is not normally retained in the product crystals
